Measurements published in patent US10772832B2, “Dry powder formulations for inhalation” (OTITOPIC INC., priority 2015, dated 2020).

How the values were obtained:
[1] = Anti-solvent suspension evaluation (filtration, residue weighing); format: physicochemical; conditions: 5% w/w suspension, room temperature
Experimental: After considering a number of factors in the end it was determined that only n-heptane and toluene fulfilled all the requirements, and therefore these were selected for further evaluation. Suspensions of acetylsalicylic acid at 5% w/w were prepared with the various anti-solvents, by charging the required amount of anti-solvent, charging the required amount of acetylsalicylic acid, and then stirring until a homogeneous suspension was obtained. The suspensions were qualitatively evaluated at room temperature and then filtered using a 0.45 μm membrane, which was then placed in an oven and dried at 60° C. until the solvent had completely evaporated. A quantitative analysis was performed on the residue that remained in the membrane by weighing the membrane before and after the test.

[2] = Light microscopy particle size; format: physicochemical
Source text: Rhodine 3040 US obtained from Rhodia Inc. was used for all experiments. Particles were dispersed in 0.1% w/w docusate sodium in water and observed under a light microscope to confirm particle size. Particles ranging from 66 to 280 μm were observed confirming data from certificate of analysis, though observed “rounding” of the particulates is indicative of partial dissolution in the aqueous dispersant.
Photomicrographs of the pre- and post-micronized uncoated particles were taken by dispersing them in a solution of 0.1% w/w docusate sodium in purified water USP, and using a digital imaging light microscope (Olympus BX51 with Clemex ST-2000 controller) at 400-times or 1000-times magnification.

Behavior towards n-heptane [1]: phobic behavior | Solubility in toluene [1]: partially soluble | Reduction in the starting particle size by micronization [2]: approximately 70 fold
SMILES: CC(=O)Oc1ccccc1C(=O)O [acetylsalicylic acid]
